Test results taken from paper PMC5908784, “Extracellular loops 2 and 3 of the calcitonin receptor selectively modify agonist binding and efficacy” (Biochemical Pharmacology, 2018).
Numbering of substitutions follows the chain as printed. Like-named read-outs stand apart in the source and are kept apart here. Where a SMILES comes first, the peptide text is derived from it. Bridges are numbered along the chain shown (N, C = ends).

Experiments:
Type in all cases: cell-based
hCTR L291A = target: T1, hCTR L291A (Homo sapiens, UniProt P30988, L291A); assay: cAMP accumulation; conditions: mean ± S.E.M.; for Emax: cAMP maximal response, SEM
T1 construct: expressed in transfected cells
T1 sequence (P30988 25-474 L291A): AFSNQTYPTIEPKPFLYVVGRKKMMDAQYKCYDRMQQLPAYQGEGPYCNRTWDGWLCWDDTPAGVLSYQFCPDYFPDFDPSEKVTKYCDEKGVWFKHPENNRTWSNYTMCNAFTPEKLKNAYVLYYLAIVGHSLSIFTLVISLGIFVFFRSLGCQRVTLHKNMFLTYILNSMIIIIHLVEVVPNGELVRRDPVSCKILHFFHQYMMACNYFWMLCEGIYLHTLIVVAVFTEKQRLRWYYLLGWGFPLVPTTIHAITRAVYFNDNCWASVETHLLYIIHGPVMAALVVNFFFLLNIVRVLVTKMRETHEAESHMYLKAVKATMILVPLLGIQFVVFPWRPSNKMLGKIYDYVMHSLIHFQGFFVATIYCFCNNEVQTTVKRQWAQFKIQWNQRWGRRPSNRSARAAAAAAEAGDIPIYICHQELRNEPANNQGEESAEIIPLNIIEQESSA
Procedure, shortened: (§1)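 30 min ligand stimulation with IBMX present; cells seeded overnight beforehand. Ethanol extract, dried at RT.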

hCTR L297A = target: T2, hCTR L297A (Homo sapiens, UniProt P30988, L297A); assay: cAMP accumulation; conditions: mean ± S.E.M.; for Emax: cAMP maximal response, SEM; for EC50: cAMP, CV1-FlpIn cells, 30 min, IBMX
T2 construct: c-Myc (N); expressed in transfected cells
T2 sequence (P30988 25-474 L297A): T1 sequence (P30988 25-474 L291A) with A267L, L273A
Procedure, shortened: as §1

hCTR P360A = target: T3, hCTR P360A (Homo sapiens, UniProt P30988, P360A); assay: cAMP accumulation; conditions: mean ± S.E.M.; for Emax: cAMP maximal response, SEM; for EC50: cAMP, CV1-FlpIn cells, 30 min, IBMX
T3 construct: expressed in transfected cells
T3 sequence (P30988 25-474 P360A): T1 sequence (P30988 25-474 L291A) with A267L, P336A
Procedure, shortened: as §1

hCTR F356A = target: T4, hCTR F356A (Homo sapiens, UniProt P30988, F356A); assay: IP1 accumulation; conditions: read-out: Emax (% WT), SEM
T4 construct: c-Myc (N); expressed in transfected cells
T4 sequence (P30988 25-474 F356A): T1 sequence (P30988 25-474 L291A) with A267L, F332A
Procedure, shortened: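 HTRF IP-One readout of IP1 after 60 min ligand stimulation (LiCl present), cells seeded overnight. Normalized to 100 μM ATP max response. EC50/Emax via 3-parameter logistic curve fit.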

hCTR W290A = target: T5, hCTR W290A (Homo sapiens, UniProt P30988, W290A); assay: ERK1/2 phosphorylation; conditions: CV1-FlpIn cells, mean ± S.E.M.; for Emax: pERK maximal response
T5 construct: c-Myc (N); expressed in transfected cells
T5 sequence (P30988 25-474 W290A): T1 sequence (P30988 25-474 L291A) with W266A, A267L
Procedure, shortened: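 Cells were seeded at 2.5 × 10^4 cells/well and cultured overnight before stimulation. ERK1/2 phosphorylation was normalized to the maximal response to 10% FBS measured at 6 min. EC50 and Emax came from a 3-parameter logistic fit of concentration-response curves.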

SMILES | Emax (hCTR L291A) | Emax (hCTR L297A) | EC50 (hCTR L297A) | Emax (hCTR P360A) | EC50 (hCTR P360A) | Emax (hCTR F356A) | EC50 (hCTR L291A; cAMP, CV1-FlpIn cells, 30 min, IBMX) | Emax (hCTR W290A) | EC50 (hCTR W290A; pERK, three-parameter logistic fit) | Emax (hCTR F356A; F356A, IP1 maximal response, mean ± S.E.M.)
CC(C)C[C@H](NC(=O)CNC(=O)[C@H](C)NC(=O)[C@H](CC(C)C)NC(=O)[C@H](CCCNC(=N)N)NC(=O)[C@H](Cc1cnc[nH]1)NC(=O)[C@@H](NC(=O)[C@@H](NC(=O)[C@@H]1CSSC[C@H](NC(=O)[C@H](C)N)C(=O)N[C@@H](CC(=O)O)C(=O)N[C@@H]([C@@H](C)O)C(=O)N[C@@H](C)C(=O)N[C@@H]([C@@H](C)O)C(=O)N1)C(C)C)[C@@H](C)O)C(=O)N[C@@H](CC(C)C)C(=O)N[C@@H](CO)C(=O)N[C@@H](CCCNC(=N)N)C(=O)N[C@@H](CO)C(=O)NCC(=O)NCC(=O)N[C@H](C(=O)N[C@H](C(=O)N[C@@H](CCCCN)C(=O)N[C@@H](CC(N)=O)C(=O)N[C@@H](CC(N)=O)C(=O)N[C@@H](Cc1ccccc1)C(=O)N[C@H](C(=O)N1CCC[C@H]1C(=O)N[C@H](C(=O)N[C@@H](CC(N)=O)C(=O)N[C@H](C(=O)NCC(=O)N[C@@H](CO)C(=O)N[C@@H](CCCCN)C(=O)N[C@@H](C)C(=O)N[C@@H](Cc1ccccc1)C(N)=O)C(C)C)[C@@H](C)O)C(C)C)C(C)C)C(C)C [hαCGRP] | 101 ± 36% | 88 ± 14% | 36.3 nM | 48 ± 5% | 17.4 nM | – | – | – | – | –
CC[C@H](C)[C@H](NC(=O)[C@H](C)NC(=O)[C@@H](NC(=O)[C@H](CCC(N)=O)NC(=O)[C@@H]1CCCN1C(=O)[C@H](Cc1ccccc1)NC(=O)[C@@H](NC(=O)[C@H](Cc1c[nH]cn1)NC(=O)[C@H](Cc1ccccc1)NC(=O)[C@H](CCCCN)NC(=O)[C@H](CC(N)=O)NC(=O)[C@H](Cc1ccccc1)NC(=O)[C@H](CC(=O)O)NC(=O)[C@H](CCC(N)=O)NC(=O)[C@@H](NC(=O)[C@H](Cc1ccc(O)cc1)NC(=O)[C@@H](NC(=O)CNC(=O)[C@H](CC(C)C)NC(=O)[C@H](CCSC)NC(=O)[C@@H]1CSSC[C@H](N)C(=O)NCC(=O)N[C@@H](CC(N)=O)C(=O)N[C@@H](CC(C)C)C(=O)N[C@@H](CO)C(=O)N[C@@H]([C@@H](C)O)C(=O)N1)[C@@H](C)O)[C@@H](C)O)[C@@H](C)O)[C@@H](C)O)C(=O)NCC(=O)N[C@H](C(=O)NCC(=O)N[C@@H](C)C(=O)N1CCC[C@H]1C(N)=O)C(C)C [hCT] | 131 ± 5% | 91 ± 6% | – | 152 ± 8% | – | 69 ± 6% | – | – | – | –
CC(C)C[C@H](NC(=O)[C@H](CC(N)=O)NC(=O)[C@H](CC(N)=O)NC(=O)[C@H](CO)NC(=O)[C@H](CO)NC(=O)[C@H](CCCNC(=N)N)NC(=O)[C@@H](NC(=O)[C@H](CC(C)C)NC(=O)[C@H](Cc1ccccc1)NC(=O)[C@H](CC(N)=O)NC(=O)[C@H](C)NC(=O)[C@H](CC(C)C)NC(=O)[C@H](CCCNC(=N)N)NC(=O)[C@H](CCC(N)=O)NC(=O)[C@@H](NC(=O)[C@H](C)NC(=O)[C@@H]1CSSC[C@H](NC(=O)[C@@H](N)CCCCN)C(=O)N[C@@H](CC(N)=O)C(=O)N[C@@H]([C@@H](C)O)C(=O)N[C@@H](C)C(=O)N[C@@H]([C@@H](C)O)C(=O)N1)[C@@H](C)O)C(C)C)C(=O)NCC(=O)N1CCC[C@H]1C(=O)N[C@H](C(=O)N[C@@H](CC(C)C)C(=O)N1CCC[C@H]1C(=O)N1CCC[C@H]1C(=O)N[C@H](C(=O)N[C@@H](CC(N)=O)C(=O)N[C@H](C(=O)NCC(=O)N[C@@H](CO)C(=O)N[C@@H](CC(N)=O)C(=O)N[C@H](C(=O)N[C@@H](Cc1ccc(O)cc1)C(N)=O)[C@@H](C)O)C(C)C)[C@@H](C)O)C(C)C [rAmy] | 101 ± 13% | 85 ± 10% | – | 115 ± 13% | – | – | – | – | – | –
CSCC[C@H](NC(=O)CNC(=O)[C@H](CO)NC(=O)[C@H](Cc1ccccc1)NC(=O)[C@H](CCCNC(=N)N)NC(=O)[C@H](Cc1c[nH]cn1)NC(=O)[C@H](Cc1ccccc1)NC(=O)[C@H](CC(N)=O)NC(=O)[C@H](CC(N)=O)NC(=O)[C@H](CC(C)C)NC(=O)[C@H](CC(N)=O)NC(=O)[C@H](CCCNC(=N)N)NC(=O)[C@H](Cc1c[nH]c2ccccc12)NC(=O)[C@H](Cc1ccc(O)cc1)NC(=O)[C@H](C)NC(=O)[C@H](CO)NC(=O)[C@H](CC(C)C)NC(=O)[C@@H](NC(=O)[C@@H]1CSSC[C@H](N)C(=O)N[C@@H](CO)C(=O)N[C@@H](CC(N)=O)C(=O)N[C@@H](CC(C)C)C(=O)N[C@@H](CO)C(=O)N[C@@H]([C@@H](C)O)C(=O)N1)C(C)C)C(=O)NCC(=O)N[C@@H](Cc1ccccc1)C(=O)NCC(=O)N1CCC[C@H]1C(=O)N[C@@H](CCC(=O)O)C(=O)N[C@H](C(=O)N1CCC[C@H]1C(N)=O)[C@@H](C)O [pCT] (H-CSNLSTCVLSAYWRNLNNFHRFSGMGFGPETP-NH2; disulfide 1-7) | 105 ± 5% | 127 ± 8% | 0.1 ± 0.002 nM | 146 ± 13% | 0.132 nM | – | 0.316 nM | 28 ± 3% | 7.41 nM | –
CC(C)C[C@H](NC(=O)[C@H](CCCCN)NC(=O)CNC(=O)[C@H](CC(C)C)NC(=O)[C@@H](NC(=O)[C@@H]1CSSC[C@H](N)C(=O)N[C@@H](CO)C(=O)N[C@@H](CC(N)=O)C(=O)N[C@@H](CC(C)C)C(=O)N[C@@H](CO)C(=O)N[C@@H]([C@@H](C)O)C(=O)N1)C(C)C)C(=O)N[C@@H](CO)C(=O)N[C@@H](CCC(N)=O)C(=O)N[C@@H](CCC(=O)O)C(=O)N[C@@H](CC(C)C)C(=O)N[C@@H](Cc1c[nH]cn1)C(=O)N[C@@H](CCCCN)C(=O)N[C@@H](CC(C)C)C(=O)N[C@@H](CCC(N)=O)C(=O)N[C@H](C(=O)N[C@@H](Cc1ccc(O)cc1)C(=O)N1CCC[C@H]1C(=O)N[C@@H](CCCNC(=N)N)C(=O)N[C@H](C(=O)N[C@@H](CC(N)=O)C(=O)N[C@H](C(=O)NCC(=O)N[C@@H](CO)C(=O)NCC(=O)N[C@H](C(=O)N1CCC[C@H]1C(N)=O)[C@@H](C)O)[C@@H](C)O)[C@@H](C)O)[C@@H](C)O [sCT] | 108 ± 4% | 103 ± 12% | – | 100 ± 5% | – | – | – | 38 ± 4% | – | 36 ± 3%
